Test results as given in patent US20220289698A1, “INHIBITORS OF HUMAN ATGL” (Karl-Franzens-Universität Graz, priority 2019, published 2022).

Key:
[1] = target: T1, human ATGL (Homo sapiens, UniProt Q96AD5); assay: TG hydrolase activity, Expi cell lysates expressing human ATGL + CGI-58, radiolabelled triolein; type: biochemical; details: Example 237; read-out: Inhibition of human ATGL − IC50
T1 construct: made in house; host or cells: Expi cells (lysate, not purified)
T1 sequence (Q96AD5 1-504): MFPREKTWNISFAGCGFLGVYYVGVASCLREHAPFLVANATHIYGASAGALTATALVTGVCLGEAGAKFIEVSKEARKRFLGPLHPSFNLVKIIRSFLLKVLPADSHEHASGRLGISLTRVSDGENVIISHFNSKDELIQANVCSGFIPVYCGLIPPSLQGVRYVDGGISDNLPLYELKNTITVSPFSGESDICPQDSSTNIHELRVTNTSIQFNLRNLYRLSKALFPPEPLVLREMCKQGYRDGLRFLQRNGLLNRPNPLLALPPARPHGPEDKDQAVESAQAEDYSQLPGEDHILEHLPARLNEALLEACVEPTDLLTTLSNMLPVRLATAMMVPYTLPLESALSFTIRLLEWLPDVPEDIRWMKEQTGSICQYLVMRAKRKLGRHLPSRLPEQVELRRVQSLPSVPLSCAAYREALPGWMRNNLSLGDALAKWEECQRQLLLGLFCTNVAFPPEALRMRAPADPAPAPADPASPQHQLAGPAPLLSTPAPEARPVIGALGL
Protocol: (§1) Triglyceride (TG) hydrolase activity was measured as previously described (Schweiger M et al., Methods in Enzymology, 2014, 538:171-93). In brief, TG hydrolase activity was determined by adding recombinant purified CGI-58 to Expi cell lysates expressing human ATGL. For determination of cross-species reactivity Expi lysates expressing ATGL from different model organisms (e.g. mouse, rat, rhesus monkey, goat, etc.) were used. Samples were incubated with DMSO (carrier) or increasing concentrations of ATGL inhibitors dissolved in DMSO. TG substrate was prepared by emulsifying 330 μM radiolabelled triolein (40,000 c.p.m./nmol) and 45 μM phosphatidylcholine/phosphatidylinositol (3:1) in 100 mM potassium phosphate buffer (pH 7.0) by sonication and adjusting to 5% essentially FA-free BSA. TG substrate was added to the reaction mixture and incubated for 1 h at 37° C. in the water bath. The reaction was terminated by adding methanol/chloroform/heptane (10:9:7) and 0.1 M potassium carbonate with 0.1 M boric acid (pH 10.5). After centrifugation at 800 g for 15 min the radioactivity in the upper phase was determined by liquid scintillation counting and the rate of FA hydrolysis was calculated. IC50 values were determined as inhibitor concentration capable of inhibiting TG hydrolase activity by 50% as compared to DMSO control. Samples were measured as duplicates. The determination of IC50 values for human ATGL is illustrated in FIG. 1.

[2] = target: T2, murine ATGL (Mus musculus, UniProt Q8BJ56); assay: TG hydrolase activity, Expi lysates expressing mouse ATGL + CGI-58, radiolabelled triolein; type: biochemical; details: 50 μM compound; Example 237; read-out: Inhibition of murine ATGL at 50 μM − mean [%]
T2 construct: made in house; host or cells: Expi cells (lysate)
T2 sequence (Q8BJ56 1-486): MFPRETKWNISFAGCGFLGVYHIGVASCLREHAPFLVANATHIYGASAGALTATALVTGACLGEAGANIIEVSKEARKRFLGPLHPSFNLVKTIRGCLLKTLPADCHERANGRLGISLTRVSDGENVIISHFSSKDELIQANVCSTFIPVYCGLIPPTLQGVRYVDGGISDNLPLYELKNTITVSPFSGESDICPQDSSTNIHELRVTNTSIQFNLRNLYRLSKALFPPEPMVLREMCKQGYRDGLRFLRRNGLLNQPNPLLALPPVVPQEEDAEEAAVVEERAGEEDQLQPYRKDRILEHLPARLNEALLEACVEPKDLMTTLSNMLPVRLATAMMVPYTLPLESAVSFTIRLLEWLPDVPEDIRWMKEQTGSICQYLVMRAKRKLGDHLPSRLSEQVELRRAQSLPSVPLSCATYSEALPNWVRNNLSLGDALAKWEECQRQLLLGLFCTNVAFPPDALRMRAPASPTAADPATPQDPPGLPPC
Protocol: as §1
Lysates from Expi cells overexpressing ATGL from mouse (Mus musculus) were incubated with recombinant purified ATGL co-activator CGI-58 and ATGL inhibitors at 50 μM. Subsequently, substrate containing radiolabeled triolein was added and liberated FA were extracted and quantified by liquid scintillation. Inhibitors were dissolved in DMSO which was used as control. Samples were measured in triplicates.

Row | Compound | IC50 [1] [µM] | inhibition at 50 µM [2] [%]
1 | CCCCOc1ccc(-c2nc(C(=O)OCC)cs2)cc1 [Example 109, Ethyl 2-(4-butoxyphenyl)thiazole-4-carboxylate] | 10 | 0
2 | CC(C)OC(=O)c1cccc(-c2ccc(F)cc2)n1 [Example 25] | 8 | 10.9
3 | CCCCCOc1ccc(-c2nc(C(=O)OCC)cs2)cc1 [Example 110, Ethyl 2-(4-(pentyloxy)phenyl)thiazole-4-carboxylate] | 25 | 0
4 | CCOC(=O)c1csc(-c2ccc(OCC(C)C)cc2)n1 [Example 104, Ethyl 2-(4-isobutoxyphenyl)thiazole-4-carboxylate] | 12 | 0
5 | CCOC(=O)c1csc(-c2ccc(SC)cc2)n1 [Example 99, Ethyl 2-(4-(methylthio)phenyl)thiazole-4-carboxylate] | 12 | 37.3
6 | CCOC(=O)c1csc(-c2ccc(OC(C)C)cc2)n1 [Example 106, Ethyl 2-(4-isopropoxyphenyl)thiazole-4-carboxylate] | 5 | 21.6
7 | CCC(C)c1ccc(-c2cc(OC)cc(C(=O)OC(C)C)n2)cc1 (stereo not drawn) [Example 56] | 7 | 0
8 | CC(C)OC(=O)c1cccc(CCc2ccccc2)n1 [Example 80] | 50 | 3.4
9 | C#CC(C)OC(=O)c1cc(OC)cc(-c2ccc(CCC)cc2)n1 (stereo not drawn) [Example 54] | 20 | 0
10 | CCOC(=O)c1csc(-c2ccc(SCC)cc2)n1 [Example 98, Ethyl 2-(4-(ethylthio)phenyl)thiazole-4-carboxylate] | 12 | 0
11 | CCOC(=O)c1csc(-c2ccc(N(C)C)cc2)n1 [Example 103, Ethyl 2-(4-(dimethylamino)phenyl)thiazole-4-carboxylate] | 25 | 33.9
12 | CON(C)C(=O)c1ccc(-c2cccc(C(=O)OC(C)C)n2)cc1 [Example 77] | 5 | 0
13 | CCOC(=O)c1csc(-c2ccc(OC(C)CC)cc2)n1 (stereo not drawn) [Example 112, Ethyl 2-(4-(sec-butoxy)phenyl)thiazole-4-carboxylate] | 10 | 1.3
14 | CCOC(=O)c1csc(-c2ccc(OC)cc2)n1 [Example 102, Ethyl 2-(4-methoxyphenyl)thiazole-4-carboxylate] | 6 | 21.5
15 | CC(C)OC(=O)c1cccc(-c2ccc(C(=O)N(C)C)cc2)n1 [Example 42] | 10 | 6.2

Other lines, results leading:

Row | IC50 [1] [µM] | inhibition at 50 µM [2] [%] | Compound
16 | 20 | 9.8 | CCOc1ccc(-c2nc(C(=O)OCC3CC3)cs2)cc1 [Example 136, Cyclopropylmethyl 2-(4-ethoxyphenyl)thiazole-4-carboxylate]
17 | 2.5 | 12.1 | CCOc1ccc(-c2nc(C(=O)OC3CC3)cs2)cc1 [Example 151, Cyclopropyl 2-(4-ethoxyphenyl)thiazole-4-carboxylate]
18 | 20 | 16.8 | CCOc1ccc(-c2nc(C(=O)OCC=C(C)C)cs2)cc1 [Example 143, 3-Methylbut-2-en-1-yl 2-(4-ethoxyphenyl)thiazole-4-carboxylate]
19 | 5 | 0 | CCOc1ccc(-c2nc(C(=O)OC3CCCC3)cs2)cc1 [Example 127, Cyclopentyl 2-(4-ethoxyphenyl)thiazole-4-carboxylate]
20 | 3 | 13.9 | CCOc1ccc(-c2nc(C(=O)OC3CCOC3)cs2)cc1 (stereo not drawn) [Example 130, Tetrahydrofuran-3-yl 2-(4-ethoxyphenyl)thiazole-4-carboxylate]
21 | 6 | 24.6 | C=CCOc1ccc(-c2nc(C(=O)OCC)cs2)cc1 [Example 113, Ethyl 2-(4-(allyloxy)phenyl)thiazole-4-carboxylate]
22 | 5 | 6.3 | CCOc1ccc(-c2nc(C(=O)OC(C)(C)C)cs2)cc1 [Example 150, tert-Butyl 2-(4-ethoxyphenyl)thiazole-4-carboxylate]
23 | 15 | 0 | CCOc1ccc(-c2nc(C(=O)O[C@H]3CCC[C@H]3C)cs2)cc1 [Example 139, (1S,2R)-2-Methylcyclopentyl 2-(4-ethoxyphenyl)thiazole-4-carboxylate]
24 | 25 | 0 | CCOc1ccc(-c2nc(C(=O)OC(C)C)c(OC(C)C)s2)cc1 [Example 177]
25 | 12 | 41.2 | C/C=C/COC(=O)c1csc(-c2ccc(OCC)cc2)n1 [Example 121, (E)-but-2-en-1-yl 2-(4-ethoxyphenyl)thiazole-4-carboxylate]
26 | 3 | 7.4 | CCCC(C)OC(=O)c1csc(-c2ccc(OCC)cc2)n1 (stereo not drawn) [Example 117, Pentan-2-yl 2-(4-ethoxyphenyl)thiazole-4-carboxylate]
27 | 5 | 2.2 | CCOC(=O)c1nc(-c2ccc(OCC)cc2)sc1OC [Example 126, Ethyl 2-(4-ethoxyphenyl)-5-methoxythiazole-4-carboxylate]
28 | 8 | 2.1 | CCOc1ccc(-c2nc(C(=O)OC)cs2)cc1 [Example 122, Methyl 2-(4-ethoxyphenyl) thiazole-4-carboxylate]
29 | 5 | 42.2 | CCOc1ccc(-c2nc(C(=O)OCc3ccco3)cs2)cc1 [Example 153, Furan-2-ylmethyl 2-(4-ethoxyphenyl)thiazole-4-carboxylate]
30 | 3 | 7 | CCOc1ccc(-c2nc(C(=O)OC(C)CC)cs2)cc1 (stereo not drawn) [Example 114, sec-Butyl 2-(4-ethoxyphenyl)thiazole-4-carboxylate]
31 | 12 | 0 | CCOc1ccc(-c2nc(C(=O)OCC(F)(F)F)cs2)cc1 [Example 116, 2,2,2-Trifluoroethyl 2-(4-ethoxyphenyl)thiazole-4-carboxylate]
32 | 25 | 11.1 | CCOC(=O)c1nc(-c2ccc(OCC)cc2)sc1Cl [Example 125, Ethyl 5-chloro-2-(4-ethoxyphenyl)thiazole-4-carboxylate]
33 | 25 | 0 | CCCCCCOc1ccc(-c2nc(C(=O)OCC)cs2)cc1 [Example 111, Ethyl 2-(4-(hexyloxy)phenyl)thiazole-4-carboxylate]
34 | 6 | 5.1 | CCOc1ccc(-c2nc(C(=O)OC3CCC3)cs2)cc1 [Example 129, Cyclobutyl 2-(4-ethoxyphenyl)thiazole-4-carboxylate]
35 | 3 | 30 | C=CCOC(=O)c1csc(-c2ccc(OCC)cc2)n1 [Example 147, Allyl 2-(4-ethoxyphenyl)thiazole-4-carboxylate]
36 | 17 | 33.7 | CCOC(=O)c1nc(-c2ccc(OCC)cc2)sc1C [Example 124, Ethyl 2-(4-ethoxyphenyl)-5-methylthiazole-4-carboxylate]
